Converted amounts (≈) assume the structure as drawn. “And” between values parts separate entries of the source, which are not always exact repeats. Equal entries are not always repeated. Where two headings read alike, the source gives them in different places.
Columns and labels:
[1] = tested on: human HCC cell line HepG2; test: cells; assay type: cell-based; conditions: for IC50: Homo sapiens, HepG2, 72 h; for in vitro anticancer activity against HepG2, in words: IC50 <100 μg/ml potential, 100-1000 μg/ml moderate; for (LD0) HepG2 / Safe doses (100% viability of HepG2) LD0: human
Procedure: The safe compounds on RBCs (5a-g, 5i-l, 5p-r, 5v-w, 6b-g) were screened for their potential anticancer activity against human HCC cell line HepG2. HepG2 cells were exposed to the test compounds, then viability of cells was measured using neutral red uptake assay as described by Borenfreund and Puerner. This assay depends on the fact that neutral red dye can be incorporated into the lysosomes of living cells providing a quantitative assay to the cytotoxic effects. The results were interpreted to calculate both the concentration causing 50% cancer cell death (IC50) of each compound and the maximum safe concentration that cause 100% viability (LD0; to be used in the in vitro anti-HCV testing) using GraphPad InStat 3.0 software (Figure 5 & Supplementary Table 2).
HepG2 cells were routinely maintained as adherent cell cultures in RPMI-1640 medium (Lonza Group Ltd, Basel, Switzerland) supplemented with 10% fetal bovine serum (FBS; Lonza, IL, USA) at 37°C in a humidified air incubator containing 5% CO2. Cells were subcultured for 2 weeks before assay. Cell viability was assessed using trypan blue exclusion method.
HepG2 cells were washed twice in RPMI-1640 medium supplemented with 200 μM L-glutamine (Lonza) and […] 4-(2-hydroxyethyl)-1-piperazineethanesulfonic acid (HEPES) buffer (Lonza). The cells were suspended at 3 × 10^4 cells/ml in RPMI culture medium (RPMI supplemented medium and 10% FBS). The appropriate number of cells was chosen to be 3 × 10^3 cells/well (100 μl of the prepared suspension), and the cells were left to adhere on the polystyrene 96-well plates in an incubator at 37°C, 5% CO2 and 95% humidity for 24 h. The cells were washed once using RPMI supplemented medium.
A 2 mg/ml stock solution of each compound was prepared in DMF and filtered using a 0.2 μM syringe filter. The desired concentrations (20, 10, 5, 2.5 and 1.25 μg/ml) were prepared using serial dilution in a 96-well plate. Compound wells were prepared by adding 100 μl of the previously prepared concentrations to a 100 μl of HepG2 cells suspension. Parallel concentrations of the solvent were prepared to be used as controls. 5-Fluorouracil was used as a positive control. Control wells were prepared by adding 100 μl culture media to a 100 μl of HepG2 cells suspension. Blank wells contained 200 μl of culture media only (without cells or compound solution). Each set of samples was pipetted in duplicate. The plate was gently shaken, then incubated at 37°C, 5% CO2 for 72 h.
After incubation, the plate was centrifuged (2000 r.p.m. for 10 min). The media were discarded by inversion over paper towels. A working solution (100 μg/ml) of neutral red stain (Bio Basic Inc, Markham, Canada) was prepared, and 100 μl of this solution was added to each well, then the plate was gently shaken. The plate was incubated at 37°C in humidified 5% CO2 for 3 h, and then centrifuged (2000 r.p.m. for 10 min). Excess dyes were discarded, and the cells were fixed with 100 μl fixing solution (0.5% formalin with 1% calcium chloride [Sigma-Aldrich]) for 1 min. Cells were destained in 100 μl destaining solution (50% ethanol with 1% glacial acetic acid [Sigma-Aldrich]) for 5 min by shaking. The stain intensity was assayed using automated microplate reader spectrophotometer adjusted at 490 nm. Surviving cell fraction was calculated according to the following equation: [drawing 3]
The results were interpreted to calculate both the concentration causing 50% cancer cell death (IC50) of each compound and the maximum safe concentration that cause 100% viability (LD0; to be used in the in vitro anti-HCV testing) using GraphPad InStat 3.0 software.

[2] = In vitro hemolytic assay; assay type: cell-based; conditions: 2% erythrocyte suspension (washed red blood cells); 2% erythrocyte suspension, 3 μl of 1 mg/ml compound in DMF per 240 μl well, 37°C 30 min, absorbance 405 nm; <5% considered nontoxic
Procedure: Compounds 5a-x and 6a-h were subjected to the in vitro hemolytic assay to identify those which cause hemolysis to red blood cells (RBCs). Consequently, these compounds would be toxic in vivo so they were excluded from further biological screening.
Blood samples (5 ml) were freshly collected into heparinized tubes and were centrifuged (1000 r.p.m. for 20 min) at room temperature. The plasma and buffy coat were removed by Pasteur pipette, and the collected erythrocytes were washed three-times using isotonic buffer solution (0.9% sodium chloride [Sigma-Aldrich, MO, USA]) by centrifugation (2500 r.p.m. for 10 min). A two percent erythrocyte suspension was prepared to be used in the assay.
A 1 mg/ml stock solution of each compound was prepared in DMF (Sigma-Aldrich). Compound wells were prepared by adding 3 μl of the compound solution to 117 μl isotonic buffer solution and 120 μl erythrocyte suspension. Compounds color blank wells were prepared by adding 3 μl compound to 237 μl isotonic buffer solution. Solvent (DMF) wells were prepared by adding 3 μl DMF to 117 μl isotonic buffer solution and 120 μl erythrocyte suspension. Positive control wells (representing 100% hemolysis) were prepared by adding 120 μl erythrocyte suspension to 120 μl distilled water, while negative control wells (representing 0% hemolysis) were prepared by adding 120 μl erythrocyte suspension to 120 μl isotonic buffer solution. Finally, blank wells contained only 240 μl isotonic buffer solution. Each set of samples was pipetted in triplicate. The microtiter plate was then shaken well on bench, incubated at 37°C for 30 min then centrifuged (2000 rpm for 5 min) at room temperature.
A fraction of the supernatant layer (150 μl) of each well was transferred to another 96-well microtiter plate. Erythrocyte hemolysis was determined by reading the absorbance (A) of liberated hemoglobin at 405 nm in the supernatant fraction compared with the 100% hemolysis of erythrocyte. The average value was calculated from triplicate assay: [drawing 2]

[3] = 72 h, neutral red, Table 1, read-out: IC50 (HepG2)
[4] = 72 h, neutral red, read-out: IC50 against HepG2 cells
[5] = LD50 on normal cells / IC50 on cancer cells, larger than three = highly selective
[6] = 72 h, neutral red, Supplementary Table 2, read-out: Anticancer (HepG2) IC50

Row | Compound | IC50 [1, 3] [µg/mL] | IC50 [1, 4] [µg/mL] | IC50 against HepG2 cells ([1]; 72 h, neutral red) [µg/mL] | IC50 [1, 6] [µg/mL] | in vitro anticancer activity against HepG2, in words [1] | Selectivity index ([1]; LD50 on PBMC / IC50 on HepG2) | (LD0) HepG2 ([1]; 72 h) [µg/mL] | Safe doses (100% viability of HepG2) LD0 ([1]; 72 h) [µg/mL] | hemolysis at 30 min, 12.5 µg/ml [2] [%] | IC100, concentration that killed 100% of cancer cells ([1]; HepG2, calculated with GraphPad InStat) | Selectivity index [1, 5]
1 | COc1ccc(-c2nn(-c3ccccc3)cc2C=C2SC(=NN=C(C)c3cc4ccccc4o3)N(C3CCCCC3)C2=O)cc1 [Compound 5l, 2-[1-(Benzofuran-2-yl)ethylidenehydrazono]-5-{[3-(4-methoxyphenyl)-1-phenyl-1H-pyrazol-4-yl]methylene}-3-cyclohexylthiazolidin-4-one] | 82.1 (≈ 133 µM) |  |  |  | potential in vitro anticancer activity | 0.57 | 5.11 | 5.11 | 2.89 |  | 
2 | CC(=NN=C1SC(=Cc2cn(-c3ccccc3)nc2-c2ccccc2)C(=O)N1c1ccc(Cl)cc1)c1nc2ccccc2[nH]1 [Compound 5p, 2-[1-(1H-Benzimidazole-2-yl)ethylidenehydrazono]-5-[(1,3-Diphenyl-1H-pyrazol-4-yl)methylene]-3-(4-chlorophenyl)thiazolidin-4-one] | 46.5 (≈ 75.7 µM) | < 50 |  |  | potential in vitro anticancer activity | 2.58 | 13.32 | 13.22 | 4.62 |  | 
3 | CC(=NN=C1SC(=Cc2cn(-c3ccccc3)nc2-c2ccc(Cl)cc2)C(=O)N1c1ccc(Cl)cc1)c1nc2ccccc2[nH]1 [Compound 5q, 2-[1-(1H-Benzimidazole-2-yl)ethylidenehydrazono]-5-{[3-(4-chlorophenyl)-1-phenyl-1H-pyrazol-4-yl]methylene}-3-(4-chlorophenyl)thiazolidin-4-one] | 35.7 (≈ 55.1 µM) | < 50 | < 100 |  | potential in vitro anticancer activity |  | 23.12 | 23.12 | 3.49 | 94.54 µg/mL and < 100 µg/mL | larger than three
4 | COc1ccc(-c2nn(-c3ccccc3)cc2C=C2SC(=NN=C(C)c3nc4ccccc4[nH]3)N(c3ccc(Cl)cc3)C2=O)cc1 [Compound 5r, 2-[1-(1H-Benzimidazole-2-yl)ethylidenehydrazono]-5-{[3-(4-methoxyphenyl)-1-phenyl-1H-pyrazol-4-yl]methylene}-3-(4-chlorophenyl)thiazolidin-4-one] | 11 (≈ 17.1 µM) | < 50 |  |  | potential in vitro anticancer activity | 3.99 | 0.18 | 0.181 | 1.87 |  | larger than three
5 | CC(=NN=C1SC(=Cc2cn(-c3ccccc3)nc2-c2ccccc2)C(=O)N1C1CCCCC1)c1nc2ccccc2[nH]1 [Compound 5v, 2-[1-(1H-Benzimidazole-2-yl)ethylidenehydrazono]-5-[(1,3-Diphenyl-1H-pyrazol-4-yl)methylene]-3-cyclohexylthiazolidin-4-one] |  |  |  | 250 (≈ 427 µM) |  |  | 30.89 | 30.89 | 3.66 |  | 
6 | CC(=NN=C1SC(=Cc2cn(-c3ccccc3)nc2-c2ccc(Cl)cc2)C(=O)N1C1CCCCC1)c1nc2ccccc2[nH]1 [Compound 5w, 2-[1-(1H-Benzimidazole-2-yl)ethylidenehydrazono]-5-{[3-(4-chlorophenyl)-1-phenyl-1H-pyrazol-4-yl]methylene}-3-cyclohexylthiazolidin-4-one] |  |  |  | 1100 (≈ 1770 µM) | very weak anticancer activity |  | 92.40 | 92.40 | 3.53 |  | 

Further lines, with some results ahead:

Row | IC50 [1, 3] [µg/mL] | IC50 [1, 4] [µg/mL] | IC50 against HepG2 cells ([1]; 72 h, neutral red) [µg/mL] | IC50 [1, 6] [µg/mL] | Compound | in vitro anticancer activity against HepG2, in words [1] | Selectivity index ([1]; LD50 on PBMC / IC50 on HepG2) | (LD0) HepG2 ([1]; 72 h) [µg/mL] | Safe doses (100% viability of HepG2) LD0 ([1]; 72 h) [µg/mL] | hemolysis at 30 min, 12.5 µg/ml [2] [%] | IC100, concentration that killed 100% of cancer cells ([1]; HepG2, calculated with GraphPad InStat) | Selectivity index [1, 5]
7 |  |  |  | 354 (≈ 689 µM) | CC(=NN=C1SC(=C2C(=O)Nc3ccccc32)C(=O)N1c1ccc(Cl)cc1)c1cc2ccccc2o1 [Compound 6b, 2-[1-(Benzofuran-2-yl)ethylidenehydrazono]-5-(2-oxoindolin-3-ylidene)-3-(4-chlorophenyl)thiazolidin-4-one] |  |  | 11.07 | 11.07 | 3.08 |  | 
8 | 76.8 (≈ 151 µM) |  |  |  | COc1ccc(N2C(=O)C(=C3C(=O)Nc4ccccc43)SC2=NN=C(C)c2cc3ccccc3o2)cc1 [Compound 6c, 2-[1-(Benzofuran-2-yl)ethylidenehydrazono]-5-(2-oxoindolin-3-ylidene)-3-(4-methoxyphenyl)thiazolidin-4-one] | potential in vitro anticancer activity | 0.37 | 3.40 | 3.40 | 4.02 |  | 
9 | 34.3 (≈ 70.7 µM) | < 50 |  |  | CC(=NN=C1SC(=C2C(=O)Nc3ccccc32)C(=O)N1C1CCCCC1)c1cc2ccccc2o1 [Compound 6d, 2-[1-(Benzofuran-2-yl)ethylidenehydrazono]-5-(2-oxoindolin-3-ylidene)-3-cyclohexylthiazolidin-4-one] | potential in vitro anticancer activity | 0.42 | 7.31 | 7.31 | 1.31 |  | 

Reference: article PMC5729604, “Dual inhibitors of hepatitis C virus and hepatocellular carcinoma: design, synthesis and docking studies” (Future Science OA, 2017)
